Results as given in PMC6795141 (RNA, 2019).

How the values were obtained:
[1] = molecular target: T1, PaTrmD (tRNA (m^1G37) methyltransferase TrmD, PA14_15990) (Pseudomonas aeruginosa, UniProt Q02RL6); assay: crystal structures; assay type: biochemical
T1 sequence (Q02RL6 5-250): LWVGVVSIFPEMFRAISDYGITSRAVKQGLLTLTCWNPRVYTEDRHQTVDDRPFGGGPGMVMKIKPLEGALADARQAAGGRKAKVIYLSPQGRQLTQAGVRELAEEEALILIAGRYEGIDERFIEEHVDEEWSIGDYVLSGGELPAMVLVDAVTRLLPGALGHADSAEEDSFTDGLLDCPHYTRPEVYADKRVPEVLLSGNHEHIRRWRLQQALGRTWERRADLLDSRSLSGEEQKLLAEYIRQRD

[2] = molecular target: T1, PaTrmD (tRNA (m^1G37) methyltransferase TrmD, PA14_15990); assay: ITC with refolded PaTrmD; assay type: binding
[3] = molecular target: T2, PaTrmD (refolded) (Pseudomonas aeruginosa PA14, UniProt Q02RL6 5-250); assay: ITC
T2 sequence: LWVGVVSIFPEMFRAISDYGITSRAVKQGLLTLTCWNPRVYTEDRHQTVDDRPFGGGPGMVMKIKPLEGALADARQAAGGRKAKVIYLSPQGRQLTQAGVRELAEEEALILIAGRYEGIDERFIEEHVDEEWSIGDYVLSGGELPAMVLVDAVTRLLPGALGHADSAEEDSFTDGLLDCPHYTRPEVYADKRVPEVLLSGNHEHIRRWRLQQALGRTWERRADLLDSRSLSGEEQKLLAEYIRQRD

Nc1ncnc2c1ncn2[C@@H]1O[C@H](C[C@@H](N)CC[C@H](N)C(=O)O)[C@@H](O)[C@H]1O [SFG, sinefungin]
Ki [1]: 0.41 ± 0.07 µM

C[S+](CC[C@H](N)C(=O)[O-])C[C@H]1O[C@@H](n2cnc3c(N)ncnc32)[C@H](O)[C@@H]1O (stereo partly drawn) [SAM, S-adenosyl-L-methionine]
Kd [2]: 14.4 ± 3.1 µM

B1: tRNALeu(GAG) (structured_RNA)
RNA: GGGGCCGAGGUGGUGGAAUUGGUAGACACGCUACCUUGAGGUGGUAGUGGCCAUAGGCUGUAGGGGUUCGAGUCCCCUCCUCGGUACCA
modifications: none (unmodified transcript)
Kd [3]: 13.6 ± 3 µM
